Laboratory results published in US6770287B1, “Biocidal cellulosic material” (The Regents of the University of California, priority 2000, dated 2004).

Tests used:
S. aureus = assay: AATCC Test Method 100 quantitative antibacterial test (bacterial reduction); format: cell-based, Staphylococcu aureus (ATCC 5368); conditions: contact time 60 min
From the text: (§1) AATCC Test Method 100 was adopted in this study. According to this test method, four pieces of staked circular fabric swatches 4.8±0.1 (about one grams) were inoculated with 1.0±0.1 milliliter of inoculum in a 250 milliliter jar. The inoculum was a nutrient broth culture containing over 1.0×10^6 clone forming units (CFU) of organisms. After the swatches were inoculated, they were neutralized by 100 milliliter of a 0.02% sodium thiosulfate solution in the jar. The contact time was the time between inoculation and neutralization. The jar was vigorously shaken and the neutralized solution was diluted in serial. The dilutions, usually 100, 101, and 102, were plated on nutrient agar and incubated for 18-24 hours at 37° C. The number of bacteria recovered from the inoculated finished fabrics was counted and compared with that from untreated fabrics. Six log reduction means the total inactivation of bacteria, and one log reduction means that finished fabrics reduced bacteria counts from 106 CFU to 105 CFU.
(§2) Finished fabrics prepared from solutions containing 1%-6% of monomethylol-5,5-dimethylhydantoin following the protocol set forth in Example 1 with pickup rates below 1% have been tested.
(§3) Fabrics finished in accordance with the protocol set forth in Example II with Anti-2, i.e., 1,3-dimethylol-5,5-dimethylhydantoin, were also tested with AATCC test method 100, which was briefly described in Example IV. In the tests, a diluted CLOROX® solution containing 0.01 % active chlorine was used to chlorinate the finished fabrics.

E. coli = assay: as above; format: cell-based, Escherichia coli (ATCC 2666); conditions: contact time 60 min
From the text: as §1, §2, §3

[1] = Anti-2 2%, #400, last column pair
[2] = Anti-2 2%, #7409, last column pair
[3] = Anti-2 6%, #400, last column pair
[4] = Anti-2 6%, #7409, last column pair
[5] = Anti-2 10%, #400, last column pair
[6] = Anti-2 10%, #7409, last column pair

CC1(C)C(=O)N(CO)C(=O)N1CO [Anti-2, 1,3-dimethylol-5,5-dimethylhydantoin]
6 log: Durable Antibacterial Properties After fifteen washes S. aur. (S. aureus; Anti-2 2%, #400) | Durable Antibacterial Properties After five washes S. aur. (S. aureus; Anti-2 2%, #400) | Durable Antibacterial Properties After ten washes S. aur. (S. aureus; Anti-2 2%, #400) | Durable Antibacterial Properties After twenty washes S. aur. (S. aureus; Anti-2 2%, #400) | Durable Antibacterial Properties After twenty washes S. aur. (S. aureus; [1]) | Durable Antibacterial Properties After fifteen washes S. aur. (S. aureus; Anti-2 2%, #7409) | Durable Antibacterial Properties After five washes S. aur. (S. aureus; Anti-2 2%, #7409) | Durable Antibacterial Properties After ten washes S. aur. (S. aureus; Anti-2 2%, #7409) | Durable Antibacterial Properties After twenty washes S. aur. (S. aureus; Anti-2 2%, #7409) | Durable Antibacterial Properties After twenty washes S. aur. (S. aureus; [2]) | Durable Antibacterial Properties After fifteen washes S. aur. (S. aureus; Anti-2 6%, #400) | Durable Antibacterial Properties After five washes S. aur. (S. aureus; Anti-2 6%, #400) | Durable Antibacterial Properties After ten washes S. aur. (S. aureus; Anti-2 6%, #400) | Durable Antibacterial Properties After twenty washes S. aur. (S. aureus; Anti-2 6%, #400) | Durable Antibacterial Properties After twenty washes S. aur. (S. aureus; [3]) | Durable Antibacterial Properties After fifteen washes S. aur. (S. aureus; Anti-2 6%, #7409) | Durable Antibacterial Properties After five washes S. aur. (S. aureus; Anti-2 6%, #7409) | Durable Antibacterial Properties After ten washes S. aur. (S. aureus; Anti-2 6%, #7409) | Durable Antibacterial Properties After twenty washes S. aur. (S. aureus; Anti-2 6%, #7409) | Durable Antibacterial Properties After twenty washes S. aur. (S. aureus; [4]) | Durable Antibacterial Properties After fifteen washes S. aur. (S. aureus; Anti-2 10%, #400) | Durable Antibacterial Properties After five washes S. aur. (S. aureus; Anti-2 10%, #400) | Durable Antibacterial Properties After ten washes S. aur. (S. aureus; Anti-2 10%, #400) | Durable Antibacterial Properties After twenty washes S. aur. (S. aureus; Anti-2 10%, #400) | Durable Antibacterial Properties After twenty washes S. aur. (S. aureus; [5]) | Durable Antibacterial Properties After fifteen washes S. aur. (S. aureus; Anti-2 10%, #7409) | Durable Antibacterial Properties After five washes S. aur. (S. aureus; Anti-2 10%, #7409) | Durable Antibacterial Properties After ten washes S. aur. (S. aureus; Anti-2 10%, #7409) | Durable Antibacterial Properties After twenty washes S. aur. (S. aureus; Anti-2 10%, #7409) | Durable Antibacterial Properties After twenty washes S. aur. (S. aureus; [6]) | Durable Antibacterial Properties After fifteen washes E. coli (E. coli; Anti-2 2%, #400) | Durable Antibacterial Properties After five washes E. coli (E. coli; Anti-2 2%, #400) | Durable Antibacterial Properties After ten washes E. coli (E. coli; Anti-2 2%, #400) | Durable Antibacterial Properties After twenty washes E. coli (E. coli; Anti-2 2%, #400) | Durable Antibacterial Properties After twenty washes E. coli (E. coli; [1]) | Durable Antibacterial Properties After fifteen washes E. coli (E. coli; Anti-2 2%, #7409) | Durable Antibacterial Properties After five washes E. coli (E. coli; Anti-2 2%, #7409) | Durable Antibacterial Properties After ten washes E. coli (E. coli; Anti-2 2%, #7409) | Durable Antibacterial Properties After twenty washes E. coli (E. coli; Anti-2 2%, #7409) | Durable Antibacterial Properties After twenty washes E. coli (E. coli; [2]) | Durable Antibacterial Properties After fifteen washes E. coli (E. coli; Anti-2 6%, #400) | Durable Antibacterial Properties After five washes E. coli (E. coli; Anti-2 6%, #400) | Durable Antibacterial Properties After ten washes E. coli (E. coli; Anti-2 6%, #400) | Durable Antibacterial Properties After twenty washes E. coli (E. coli; Anti-2 6%, #400) | Durable Antibacterial Properties After twenty washes E. coli (E. coli; [3]) | Durable Antibacterial Properties After fifteen washes E. coli (E. coli; Anti-2 6%, #7409) | Durable Antibacterial Properties After five washes E. coli (E. coli; Anti-2 6%, #7409) | Durable Antibacterial Properties After ten washes E. coli (E. coli; Anti-2 6%, #7409) | Durable Antibacterial Properties After twenty washes E. coli (E. coli; Anti-2 6%, #7409) | Durable Antibacterial Properties After twenty washes E. coli (E. coli; [4]) | Durable Antibacterial Properties After fifteen washes E. coli (E. coli; Anti-2 10%, #400) | Durable Antibacterial Properties After five washes E. coli (E. coli; Anti-2 10%, #400) | Durable Antibacterial Properties After ten washes E. coli (E. coli; Anti-2 10%, #400) | Durable Antibacterial Properties After twenty washes E. coli (E. coli; Anti-2 10%, #400) | Durable Antibacterial Properties After twenty washes E. coli (E. coli; [5]) | Durable Antibacterial Properties After fifteen washes E. coli (E. coli; Anti-2 10%, #7409) | Durable Antibacterial Properties After five washes E. coli (E. coli; Anti-2 10%, #7409) | Durable Antibacterial Properties After ten washes E. coli (E. coli; Anti-2 10%, #7409) | Durable Antibacterial Properties After twenty washes E. coli (E. coli; Anti-2 10%, #7409) | Durable Antibacterial Properties After twenty washes E. coli (E. coli; [6])
